Measured values published in patent US7049289B1, “Labelled glutamine and lysine analogues” (Amersham PLC, priority 1998, dated 2006).
“Also recorded” adds a separate entry of the source. *1 amine or outer side, *2 acyl side, *3 side chain or, on linkers, in order; H or OH if unused. Where no end group is shown, it is not given here. The star is where a group is joined. Fmoc = O=C(OCC1c2ccccc2-c2ccccc21)*; Glutaryl = O=C(CCCC(=O)[*:2])[*:1]; code Z = not defined here

Assays:
[1] = biological target: T1, fibrin (in vitro human plasma clot) (Homo sapiens, UniProt P02671+P02675+P02679); assay: Incorporation into human plasma clots in vitro; format: biochemical; conditions: for % specific uptake: % retained (with thrombin) - % retained (no thrombin); for % retained (no thrombin): control without thrombin and calcium chloride (non-specific binding); for % retained (with thrombin): human plasma clot, 60 minutes, ca. 20° C.
T1 construct: about 400 μl of human plasma containing the radiolabelled substrate; from tissue; host or cells: human plasma, clotted in vitro with added thrombin and calcium chloride
T1 sequence (P02671 20-644 isoform P02671-2 limits assumed): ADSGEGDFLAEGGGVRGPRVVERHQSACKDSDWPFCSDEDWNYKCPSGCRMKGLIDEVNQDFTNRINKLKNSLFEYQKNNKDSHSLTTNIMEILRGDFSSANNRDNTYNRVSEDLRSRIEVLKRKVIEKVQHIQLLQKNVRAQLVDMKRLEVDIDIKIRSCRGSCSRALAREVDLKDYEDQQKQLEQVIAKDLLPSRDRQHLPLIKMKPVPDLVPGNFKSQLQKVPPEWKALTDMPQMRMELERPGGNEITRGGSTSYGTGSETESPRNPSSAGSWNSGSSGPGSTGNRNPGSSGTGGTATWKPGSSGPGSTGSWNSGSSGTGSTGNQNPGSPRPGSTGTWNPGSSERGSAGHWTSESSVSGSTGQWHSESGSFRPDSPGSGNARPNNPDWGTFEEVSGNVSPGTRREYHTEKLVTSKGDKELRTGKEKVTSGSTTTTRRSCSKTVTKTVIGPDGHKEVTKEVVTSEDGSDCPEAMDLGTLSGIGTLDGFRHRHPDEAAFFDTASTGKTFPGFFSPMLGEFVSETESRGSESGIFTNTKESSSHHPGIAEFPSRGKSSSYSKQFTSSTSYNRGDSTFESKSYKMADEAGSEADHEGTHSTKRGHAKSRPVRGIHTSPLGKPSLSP
T1 sequence (P02675 45-491 limits assumed): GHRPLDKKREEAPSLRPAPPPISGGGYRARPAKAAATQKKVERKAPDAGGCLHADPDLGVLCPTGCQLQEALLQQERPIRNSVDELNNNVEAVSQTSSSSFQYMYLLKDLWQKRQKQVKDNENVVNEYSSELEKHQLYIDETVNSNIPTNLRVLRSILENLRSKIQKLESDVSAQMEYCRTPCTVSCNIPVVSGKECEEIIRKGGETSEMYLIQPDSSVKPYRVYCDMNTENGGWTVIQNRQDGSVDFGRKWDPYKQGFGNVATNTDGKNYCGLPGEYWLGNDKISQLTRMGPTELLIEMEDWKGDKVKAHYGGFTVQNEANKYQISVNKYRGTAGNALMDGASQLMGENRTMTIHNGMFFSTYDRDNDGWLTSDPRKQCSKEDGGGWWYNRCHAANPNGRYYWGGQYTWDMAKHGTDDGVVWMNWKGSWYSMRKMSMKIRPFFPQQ
T1 sequence (P02679 27-437 isoform P02679-2 limits assumed): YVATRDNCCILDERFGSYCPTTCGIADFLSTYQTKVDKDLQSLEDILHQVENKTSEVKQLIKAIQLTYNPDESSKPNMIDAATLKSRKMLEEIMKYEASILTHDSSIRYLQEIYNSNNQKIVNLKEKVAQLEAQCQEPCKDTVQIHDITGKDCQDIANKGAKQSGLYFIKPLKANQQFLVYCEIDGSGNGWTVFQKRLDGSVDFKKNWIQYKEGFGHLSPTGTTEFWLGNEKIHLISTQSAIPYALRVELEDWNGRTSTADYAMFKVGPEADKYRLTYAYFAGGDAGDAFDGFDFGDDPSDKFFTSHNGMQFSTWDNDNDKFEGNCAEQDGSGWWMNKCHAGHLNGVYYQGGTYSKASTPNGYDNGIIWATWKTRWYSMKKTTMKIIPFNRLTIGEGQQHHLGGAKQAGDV
Method: Incorporation of radiolabelled substrates into fibrin was investigated by induction of an in vitro human plasma clot in the following manner. To a siliconised 5 ml glass vial was added, (a) 800 μl of Tris(hydroxymethyl)aminomethane buffered saline pH 7.5 containing calcium chloride (50 mM Tris, 150 mM sodium chloride, 4 mM calcium chloride.), (b) about 40 μl of physiological salt solution containing 100 units of thrombin per ml, (c) about 400 μl of human plasma containing the radiolabelled substrate at a concentration of typically 10 kBq/ml. To aid induction of clot a roughened glass rod was added to the reaction vial. Control vials were prepared similarly but with the omission of thrombin and calcium chloride.
After incubation of the test solution at ambient laboratory temperature (ca. 20° C.) for 60 minutes the reaction was discontinued with the addition of about 400 μl of a cold solution of 33.5 mM ethylenediaminetetra-acetic acid disodium salt. Clots were separated from serum by vacuum filtration onto […] nitrocellulose filters (pre-soaked in 1.5% BSA/tris(hydroxymethyl)aminoethae buffered saline pH 7.5 containing 0.1% Tween 20) and washed with about 2×10 ml of tris(hydroxymethyl)aminomethane buffered saline pH 7.5 containing Tween 20 to a final concentration of 0.1% v/v. The proportion of total radioactivity was calculated by counting in suitable detection apparatus.
The fraction of radioactivity retained on the filter, after subtraction of the non-specific binding determined from the control, is a measure of incorporation into the filtered clots.

[2] = Incorporation into clots induced in a rat model (rat inferior vena cava model); format: in vivo, rat (Male Wistar); conditions: for % id/g (clot) / Rel. Conc. (cpm/g of clot by dose/g animal): sacrificed after 60 min
Method: The rats (Male Wistar, 250–350 g) were anaesthetised with 15% urethane. After laparotomy, the vena cava was isolated and freed of surrounding fat tissue. […] The compounds were injected 5 min (fresh clot) and 60 min (aged clot) post-induction. After 60 min the animals were sacrificed and the clot removed, weighed and counted. Other tissues e.g. blood, lung, heart, were also dissected and counted. The uptake of tracer into the clot was determined as the relative concentration (cpm/g of clot by dose/g animal) and clot to background tissue.

[3] = Aged Clots: injected 60 min post-induction
[4] = Fresh Clots: injected 5 min post-induction

Ac-NQEQVSP(I-Y)TLLKG-Pn216 [^99mTc-Cmpd 22]
% specific uptake [1]: 58.7% | % retained (no thrombin) [1]: 0.3% | % retained (with thrombin) [1]: 59.0% | Clot/blood ([2]; Aged Clots): 11 | Clot/heart ([2]; Aged Clots): 3 | Clot/liver ([2]; Aged Clots): 4 | Clot/lung ([2]; Aged Clots): 1 | % id/g (clot) [2, 3]: 6.9 ± 2.5 % id/g | Rel. Conc. (cpm/g of clot by dose/g animal) [2, 3]: 22.7 ± 7.4 | Clot/blood ([2]; Fresh Clots): 11 | Clot/heart ([2]; Fresh Clots): 28 | Clot/liver ([2]; Fresh Clots): 25 | Clot/lung ([2]; Fresh Clots): 13 | % id/g (clot) [2, 4]: 3.8 ± 1.6 % id/g | Rel. Conc. (cpm/g of clot by dose/g animal) [2, 4]: 13.0 ± 5.5

Pn44-CO(CH2)3CO-NQEQVSPYTLLKG-NH2 ({Pn44-Glutaryl}-NQEQVSPYTLLKG-NH2; also: 99mTc complex) [^99mTc-Cmpd 38]
% specific uptake [1]: 20.3% | % retained (no thrombin) [1]: 0.7% | % retained (with thrombin) [1]: 21.0% | Clot/blood ([2]; Aged Clots): 3 | Clot/heart ([2]; Aged Clots): 1 | Clot/liver ([2]; Aged Clots): 2 | Clot/lung ([2]; Aged Clots): 0.5 | % id/g (clot) [2, 3]: 0.8 ± 0.3 % id/g | Rel. Conc. (cpm/g of clot by dose/g animal) [2, 3]: 2.4 ± 0.7 | Clot/blood ([2]; Fresh Clots): 5 | Clot/heart ([2]; Fresh Clots): 15 | Clot/liver ([2]; Fresh Clots): 3 | Clot/lung ([2]; Fresh Clots): 6 | % id/g (clot) [2, 4]: 1.9 ± 0.5 % id/g | Rel. Conc. (cpm/g of clot by dose/g animal) [2, 4]: 5.4 ± 1.5

Fmoc-NQEQVSPYTLLKG-Pn216 (also: 99mTc complex) [^99mTc-Cmpd 9]
% specific uptake [1]: 42.8% | % retained (no thrombin) [1]: 2.7% | % retained (with thrombin) [1]: 44.5% | Clot/blood ([2]; Aged Clots): 8 | Clot/heart ([2]; Aged Clots): 21 | Clot/liver ([2]; Aged Clots): 6 | Clot/lung ([2]; Aged Clots): 7 | % id/g (clot) [2, 3]: 3.7 ± 0.4 % id/g | Rel. Conc. (cpm/g of clot by dose/g animal) [2, 3]: 11.4 ± 1.5 | Clot/blood ([2]; Fresh Clots): 13 | Clot/heart ([2]; Fresh Clots): 32 | Clot/liver ([2]; Fresh Clots): 13 | Clot/lung ([2]; Fresh Clots): 12 | % id/g (clot) [2, 4]: 8.8 ± 3.6 % id/g | Rel. Conc. (cpm/g of clot by dose/g animal) [2, 4]: 24.8 ± 9.6

Ac-N—CH2NH2-QEQVSP(D-Y)TLL(D-K)G-Pn216 [^99mTc-Cmpd 34]
% specific uptake [1]: 5.4% | % retained (no thrombin) [1]: 0.1% | % retained (with thrombin) [1]: 5.5% | in vitro clot uptake (in words) [1]: significant reduction in uptake | Clot/blood ([2]; Aged Clots): 3 | Clot/liver ([2]; Aged Clots): 6 | % id/g (clot) [2, 3]: 0.4 ± 0.1 % id/g | Rel. Conc. (cpm/g of clot by dose/g animal) [2, 3]: 1.4 ± 0.4 | Clot/blood ([2]; Fresh Clots): 2 | Clot/heart ([2]; Fresh Clots): 6 | Clot/liver ([2]; Fresh Clots): 8 | Clot/lung ([2]; Fresh Clots): 3 | % id/g (clot) [2, 4]: 0.5 ± 0.2 % id/g | Rel. Conc. (cpm/g of clot by dose/g animal) [2, 4]: 1.8 ± 0.5

Ac-NAEAVSPYTLLKG-Pn216 (also: 99mTc complex) [^99mTc-Cmpd 14]
% specific uptake [1]: 2.8% | % retained (no thrombin) [1]: 0.5% | % retained (with thrombin) [1]: 3.3% | in vitro clot uptake (in words) [1]: significant reduction in uptake; also recorded: large drop in uptake | Clot/blood ([2]; Aged Clots): 1.4 | Clot/heart ([2]; Aged Clots): 2 | Clot/liver ([2]; Aged Clots): 0.7 | Clot/lung ([2]; Aged Clots): 1.3 | % id/g (clot) [2, 3]: 0.6 ± 0.4 % id/g | Rel. Conc. (cpm/g of clot by dose/g animal) [2, 3]: 1.4 ± 0.8 | Clot/blood ([2]; Fresh Clots): 2 | Clot/heart ([2]; Fresh Clots): 3 | Clot/liver ([2]; Fresh Clots): 0.7 | Clot/lung ([2]; Fresh Clots): 1.5 | % id/g (clot) [2, 4]: 0.5 ± 0.1 % id/g | Rel. Conc. (cpm/g of clot by dose/g animal) [2, 4]: 1.2 ± 0.2

NQEQVSPYTLLK [^123I-Cmpd 1, reference compound]
% specific uptake [1]: 12.6% | % retained (no thrombin) [1]: 2.0% | % retained (with thrombin) [1]: 14.6% | RC (in vivo clot uptake) [2]: 1.5 | Clot/blood ([2]; Fresh Clots): 1 | % id/g (clot) [2, 4]: 0.5 ± 0.1 % id/g | Rel. Conc. (cpm/g of clot by dose/g animal) [2, 4]: 1.6 ± 0.4

NQEQVSPYTLLKG-Pn216 (also: 99mTc complex) [^99mTc-Cmpd 6]
% specific uptake [1]: 64.3% | % retained (no thrombin) [1]: 4.3% | % retained (with thrombin) [1]: 68.6%

Ac-NQEQVSPLTLLKG-Pn216 (also: 99mTc complex) [^99mTc-Cmpd 19]
% specific uptake [1]: 48.0% | % retained (no thrombin) [1]: 0.2% | % retained (with thrombin) [1]: 48.2% | Clot/blood ([2]; Aged Clots): 14 | Clot/heart ([2]; Aged Clots): 13 | Clot/liver ([2]; Aged Clots): 6 | Clot/lung ([2]; Aged Clots): 5 | % id/g (clot) [2, 3]: 3.2 ± 2.3 % id/g | Rel. Conc. (cpm/g of clot by dose/g animal) [2, 3]: 9.1 ± 7.1 | Clot/blood ([2]; Fresh Clots): 3 | Clot/heart ([2]; Fresh Clots): 29 | Clot/liver ([2]; Fresh Clots): 17 | Clot/lung ([2]; Fresh Clots): 7 | % id/g (clot) [2, 4]: 2.5 ± 0.3 % id/g | Rel. Conc. (cpm/g of clot by dose/g animal) [2, 4]: 7.1 ± 1.2

(CF3)2(C6H3)-NQEQVSPYTLLKG-Pn216 ({(CF3)2(C6H3)}-NQEQVSPYTLLKG-Pn216; also: 99mTc complex) [^99mTc-Cmpd 10]
% specific uptake [1]: 65.7% | % retained (no thrombin) [1]: 0.2% | % retained (with thrombin) [1]: 65.9% | Clot/blood ([2]; Aged Clots): 6 | Clot/heart ([2]; Aged Clots): 16 | Clot/liver ([2]; Aged Clots): 5 | Clot/lung ([2]; Aged Clots): 6 | % id/g (clot) [2, 3]: 2.9 ± 1.4 % id/g | Rel. Conc. (cpm/g of clot by dose/g animal) [2, 3]: 6.3 ± 2.7 | Clot/blood ([2]; Fresh Clots): 4 | Clot/heart ([2]; Fresh Clots): 10 | Clot/liver ([2]; Fresh Clots): 5 | Clot/lung ([2]; Fresh Clots): 5 | % id/g (clot) [2, 4]: 2.9 ± 0.5 % id/g | Rel. Conc. (cpm/g of clot by dose/g animal) [2, 4]: 6.5 ± 1.2

Z-NQEQVSPYG-Pn216 ({code Z}-NQEQVSPYG-Pn216; reading uncertain; also: 99mTc complex, printed as Z-NQEQVSPYG-Pn216) [^99mTc-Cmpd 18]
% specific uptake [1]: 9.7% | % retained (no thrombin) [1]: 0.1% | % retained (with thrombin) [1]: 9.8% | in vitro clot uptake (in words) [1]: significant reduction in uptake

Ac-NQEQVSPYTLLKG-(PEG)3.4k-Pn44 (Ac-NQEQVSPYTLLKG-{PEG 3.4k-Pn44}; also: 99mTc complex) [^99mTc-Cmpd 40]
% specific uptake [1]: 13.2% | % retained (no thrombin) [1]: 0.1% | % retained (with thrombin) [1]: 13.3%

Ac-NQEQV(D-S)P(D-Y)TLL(D-K)G-Pn216 [^99mTc-Cmpd 30]
% specific uptake [1]: 14.7% | % retained (no thrombin) [1]: 0.2% | % retained (with thrombin) [1]: 14.9%

Z-NQEQVSP(I2-Y)TLLKG-Pn216 [^99mTc-Cmpd 25]
% specific uptake [1]: 63.7% | % retained (no thrombin) [1]: 4.3% | % retained (with thrombin) [1]: 68.0%
